Experimental data published in ChEMBL document CHEMBL1141723, “Specific targeting of metzincin family members with small-molecule inhibitors: progress toward a multifarious challenge” (Bioorg Med Chem, 2008).
pIC50, pKi: −log10 of the molar value. Active and inactive are the calls of the source. The rule behind the calls is not given here.

Key:
[1] = Inhibition of aggrecanase at 1 uM
Neutrophil collagenase [2] = biological target: T1, Neutrophil collagenase (Homo sapiens, UniProt P22894); experiment: Inhibition of MMP8
Collagenase 3 [3] = biological target: T2, Collagenase 3 (Homo sapiens, UniProt P45452); experiment: Inhibition of MMP13
[4] = biological target: T3, Matrix metalloproteinase-9 (Homo sapiens, UniProt P14780); experiment: Inhibition of MMP9
T3 sequence (P14780 whole entry): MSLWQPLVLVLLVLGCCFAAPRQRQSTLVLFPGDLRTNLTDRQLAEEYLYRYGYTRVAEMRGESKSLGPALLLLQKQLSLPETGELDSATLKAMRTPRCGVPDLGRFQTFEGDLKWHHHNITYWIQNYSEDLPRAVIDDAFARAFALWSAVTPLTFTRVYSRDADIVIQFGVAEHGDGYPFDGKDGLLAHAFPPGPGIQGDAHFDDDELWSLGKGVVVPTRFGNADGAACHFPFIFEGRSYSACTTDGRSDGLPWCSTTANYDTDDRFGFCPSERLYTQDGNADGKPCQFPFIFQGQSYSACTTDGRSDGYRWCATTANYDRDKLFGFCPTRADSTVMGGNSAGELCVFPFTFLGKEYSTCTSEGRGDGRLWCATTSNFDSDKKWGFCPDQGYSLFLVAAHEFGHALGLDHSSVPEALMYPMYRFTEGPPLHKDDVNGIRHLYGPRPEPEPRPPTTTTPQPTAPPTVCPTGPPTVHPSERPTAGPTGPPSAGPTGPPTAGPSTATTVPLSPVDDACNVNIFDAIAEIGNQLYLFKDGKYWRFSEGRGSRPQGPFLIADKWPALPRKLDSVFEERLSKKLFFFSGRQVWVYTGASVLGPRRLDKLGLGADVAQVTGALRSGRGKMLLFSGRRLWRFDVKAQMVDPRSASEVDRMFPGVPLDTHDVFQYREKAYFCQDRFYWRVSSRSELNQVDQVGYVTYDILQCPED

[5] = biological target: T4, Matrix metalloproteinase-14 (Homo sapiens, UniProt P50281); experiment: Inhibition of MMP14
Stromelysin-3 = Stromelysin-3 (Homo sapiens, UniProt P24347); experiment: Inhibition of MMP11
[6] = biological target: T5, 72 kDa type IV collagenase (Homo sapiens, UniProt P08253)
Target sequence in this assay (P08253 whole entry): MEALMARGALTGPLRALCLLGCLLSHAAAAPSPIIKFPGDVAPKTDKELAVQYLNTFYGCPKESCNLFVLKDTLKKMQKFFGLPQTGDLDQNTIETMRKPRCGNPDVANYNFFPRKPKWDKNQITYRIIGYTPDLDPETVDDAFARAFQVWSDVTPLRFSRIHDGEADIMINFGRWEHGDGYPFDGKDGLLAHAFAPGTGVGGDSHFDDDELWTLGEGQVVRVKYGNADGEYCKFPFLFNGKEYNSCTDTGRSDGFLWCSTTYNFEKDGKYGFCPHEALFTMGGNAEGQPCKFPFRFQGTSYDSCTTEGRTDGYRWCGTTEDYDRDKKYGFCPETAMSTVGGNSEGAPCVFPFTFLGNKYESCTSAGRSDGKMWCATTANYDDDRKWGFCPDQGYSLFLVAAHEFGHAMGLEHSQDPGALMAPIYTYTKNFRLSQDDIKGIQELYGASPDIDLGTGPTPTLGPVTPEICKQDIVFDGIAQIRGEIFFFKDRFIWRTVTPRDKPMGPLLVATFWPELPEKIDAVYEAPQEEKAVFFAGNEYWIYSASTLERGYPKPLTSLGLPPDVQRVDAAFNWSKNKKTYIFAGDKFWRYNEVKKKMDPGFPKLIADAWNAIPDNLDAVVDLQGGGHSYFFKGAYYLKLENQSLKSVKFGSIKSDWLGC

[7] = biological target: A disintegrin and metalloproteinase with thrombospondin motifs 1 (Homo sapiens, UniProt Q9UHI8); experiment: Inhibition of ADAMTS1
[8] = biological target: A disintegrin and metalloproteinase with thrombospondin motifs 5 (Homo sapiens, UniProt Q9UNA0); experiment: Inhibition of ADAMTS5
Chain of A disintegrin and metalloproteinase with thrombospondin motifs 5 (Q9UNA0 whole entry, the tested form may be a part): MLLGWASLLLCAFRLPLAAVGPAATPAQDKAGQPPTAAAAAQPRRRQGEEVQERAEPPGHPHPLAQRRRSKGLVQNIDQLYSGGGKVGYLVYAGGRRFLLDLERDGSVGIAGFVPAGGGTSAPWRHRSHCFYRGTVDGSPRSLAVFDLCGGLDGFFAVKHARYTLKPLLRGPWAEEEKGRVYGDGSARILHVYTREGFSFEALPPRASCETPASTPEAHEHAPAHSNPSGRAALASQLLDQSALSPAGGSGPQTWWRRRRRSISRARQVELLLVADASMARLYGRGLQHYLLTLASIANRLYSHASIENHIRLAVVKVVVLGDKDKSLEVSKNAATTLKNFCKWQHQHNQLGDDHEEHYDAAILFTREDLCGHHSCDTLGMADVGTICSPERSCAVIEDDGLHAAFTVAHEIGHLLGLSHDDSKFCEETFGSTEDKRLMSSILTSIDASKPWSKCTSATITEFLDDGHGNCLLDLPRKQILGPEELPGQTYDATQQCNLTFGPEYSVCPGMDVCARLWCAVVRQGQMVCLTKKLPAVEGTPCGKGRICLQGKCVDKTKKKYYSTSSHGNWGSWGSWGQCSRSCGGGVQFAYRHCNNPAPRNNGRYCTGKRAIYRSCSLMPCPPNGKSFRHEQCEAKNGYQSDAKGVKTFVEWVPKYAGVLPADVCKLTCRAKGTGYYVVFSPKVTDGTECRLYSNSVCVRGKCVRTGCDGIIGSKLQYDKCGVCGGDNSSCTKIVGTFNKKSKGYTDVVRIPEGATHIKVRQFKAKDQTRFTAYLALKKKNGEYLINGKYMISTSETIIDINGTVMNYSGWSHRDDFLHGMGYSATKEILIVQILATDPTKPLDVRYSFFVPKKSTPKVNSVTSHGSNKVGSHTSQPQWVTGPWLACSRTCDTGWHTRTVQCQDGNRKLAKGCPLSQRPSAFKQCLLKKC

[9] = biological target: T6, Disintegrin and metalloproteinase domain-containing protein 10 (Homo sapiens, UniProt O14672); experiment: Inhibition of ADAM10
T6 sequence (O14672 whole entry): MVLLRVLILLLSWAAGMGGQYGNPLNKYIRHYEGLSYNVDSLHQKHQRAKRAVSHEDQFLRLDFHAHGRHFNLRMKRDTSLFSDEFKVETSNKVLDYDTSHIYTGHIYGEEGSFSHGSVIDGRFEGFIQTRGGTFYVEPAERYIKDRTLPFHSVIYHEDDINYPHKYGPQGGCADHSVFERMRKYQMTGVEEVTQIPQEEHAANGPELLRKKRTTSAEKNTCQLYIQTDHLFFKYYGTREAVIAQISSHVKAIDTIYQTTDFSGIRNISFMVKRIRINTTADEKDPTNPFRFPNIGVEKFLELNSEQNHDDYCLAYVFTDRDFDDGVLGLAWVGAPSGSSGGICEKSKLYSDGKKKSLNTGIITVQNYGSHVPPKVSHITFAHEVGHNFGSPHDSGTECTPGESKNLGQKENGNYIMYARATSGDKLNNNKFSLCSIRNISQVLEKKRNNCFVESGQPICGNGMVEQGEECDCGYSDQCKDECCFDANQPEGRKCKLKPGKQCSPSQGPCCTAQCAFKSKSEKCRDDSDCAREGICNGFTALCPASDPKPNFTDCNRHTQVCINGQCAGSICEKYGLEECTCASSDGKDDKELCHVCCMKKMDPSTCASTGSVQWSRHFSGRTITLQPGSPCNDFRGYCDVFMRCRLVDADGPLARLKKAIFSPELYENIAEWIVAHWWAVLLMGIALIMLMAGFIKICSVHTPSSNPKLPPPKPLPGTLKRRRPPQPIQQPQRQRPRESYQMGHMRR

[10] = biological target: Disintegrin and metalloproteinase domain-containing protein 17 (Sus scrofa, UniProt O77636); experiment: Inhibition of pig TACE
Stromelysin-2 [11] = biological target: T7, Stromelysin-2 (Homo sapiens, UniProt P09238); experiment: Inhibition of MMP10
Interstitial collagenase = biological target: T8, Interstitial collagenase (Homo sapiens, UniProt P03956)
T8 sequence (P03956 whole entry): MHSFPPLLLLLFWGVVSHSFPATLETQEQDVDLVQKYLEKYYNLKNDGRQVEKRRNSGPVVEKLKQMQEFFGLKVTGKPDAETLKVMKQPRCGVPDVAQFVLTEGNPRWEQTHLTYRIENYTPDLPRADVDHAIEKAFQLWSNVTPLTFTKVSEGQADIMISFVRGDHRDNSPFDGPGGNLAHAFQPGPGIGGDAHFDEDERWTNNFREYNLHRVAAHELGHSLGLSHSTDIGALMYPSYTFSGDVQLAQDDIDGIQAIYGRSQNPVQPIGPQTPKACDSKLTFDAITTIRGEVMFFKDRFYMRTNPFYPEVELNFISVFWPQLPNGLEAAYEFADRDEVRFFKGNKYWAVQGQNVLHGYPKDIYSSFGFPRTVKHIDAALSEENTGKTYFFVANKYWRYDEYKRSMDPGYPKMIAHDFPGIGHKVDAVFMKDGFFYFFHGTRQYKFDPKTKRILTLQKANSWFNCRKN

Stromelysin-1 [12] = biological target: T9, Stromelysin-1 (Homo sapiens, UniProt P08254)
Target sequence in this assay (P08254 whole entry): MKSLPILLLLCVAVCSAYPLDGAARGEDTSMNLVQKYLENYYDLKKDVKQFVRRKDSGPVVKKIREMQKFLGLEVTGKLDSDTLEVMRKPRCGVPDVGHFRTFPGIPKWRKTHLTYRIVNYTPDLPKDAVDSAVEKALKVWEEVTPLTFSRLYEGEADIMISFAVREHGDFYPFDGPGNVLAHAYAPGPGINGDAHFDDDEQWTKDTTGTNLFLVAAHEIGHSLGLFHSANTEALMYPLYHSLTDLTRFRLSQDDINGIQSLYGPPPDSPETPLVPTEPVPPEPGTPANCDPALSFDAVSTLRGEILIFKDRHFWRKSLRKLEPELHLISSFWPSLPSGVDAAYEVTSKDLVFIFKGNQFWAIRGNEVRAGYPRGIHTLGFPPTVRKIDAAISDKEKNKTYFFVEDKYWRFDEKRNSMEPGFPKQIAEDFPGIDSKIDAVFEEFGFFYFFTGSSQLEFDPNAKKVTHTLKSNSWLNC

[13] = biological target: Matrix metalloproteinase-15 (Homo sapiens, UniProt P51511)
Chain of Matrix metalloproteinase-15 (P51511 whole entry): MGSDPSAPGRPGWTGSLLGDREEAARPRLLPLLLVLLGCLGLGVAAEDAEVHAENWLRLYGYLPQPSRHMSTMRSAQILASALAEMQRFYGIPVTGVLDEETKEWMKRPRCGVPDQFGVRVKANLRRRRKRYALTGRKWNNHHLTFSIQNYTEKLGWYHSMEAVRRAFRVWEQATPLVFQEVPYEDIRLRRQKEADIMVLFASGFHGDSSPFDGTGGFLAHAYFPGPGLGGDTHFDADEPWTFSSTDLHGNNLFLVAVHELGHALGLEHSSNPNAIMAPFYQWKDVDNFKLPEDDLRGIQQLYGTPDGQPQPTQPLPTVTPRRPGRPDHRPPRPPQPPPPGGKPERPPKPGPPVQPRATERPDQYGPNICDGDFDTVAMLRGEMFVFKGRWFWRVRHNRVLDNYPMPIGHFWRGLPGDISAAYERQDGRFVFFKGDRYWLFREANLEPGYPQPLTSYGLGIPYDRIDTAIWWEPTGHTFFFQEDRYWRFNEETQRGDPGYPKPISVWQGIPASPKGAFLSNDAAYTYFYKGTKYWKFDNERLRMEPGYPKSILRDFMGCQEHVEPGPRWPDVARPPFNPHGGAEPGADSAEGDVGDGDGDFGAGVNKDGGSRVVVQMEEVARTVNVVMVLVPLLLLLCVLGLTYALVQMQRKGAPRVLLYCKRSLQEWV

[14] = Selectivity for MMP13 over MMP14
[15] = Selectivity for MMP13 over MMP1
[16] = Selectivity for MMP13 over MMP2
[17] = Selectivity for MMP13 over MMP3
[18] = Selectivity for MMP13 over MMP8
[19] = Selectivity for MMP13 over MMP9
[20] = Selectivity for MMP13 over MMP12
Stromelysin-2 [21] = biological target: T7, Stromelysin-2; experiment: Inhibition of MMP10 up to 100 uM
[22] = biological target: T10, Interstitial collagenase (Homo sapiens) (UniProt P03956); experiment: Inhibition of MMP1 at 100 uM
T10 sequence (whole entry): T8 sequence (P03956 whole entry)

[23] = biological target: T5, 72 kDa type IV collagenase; experiment: Inhibition of MMP2 up to 100 uM
Target sequence in this assay (P08253 110-660 limits assumed): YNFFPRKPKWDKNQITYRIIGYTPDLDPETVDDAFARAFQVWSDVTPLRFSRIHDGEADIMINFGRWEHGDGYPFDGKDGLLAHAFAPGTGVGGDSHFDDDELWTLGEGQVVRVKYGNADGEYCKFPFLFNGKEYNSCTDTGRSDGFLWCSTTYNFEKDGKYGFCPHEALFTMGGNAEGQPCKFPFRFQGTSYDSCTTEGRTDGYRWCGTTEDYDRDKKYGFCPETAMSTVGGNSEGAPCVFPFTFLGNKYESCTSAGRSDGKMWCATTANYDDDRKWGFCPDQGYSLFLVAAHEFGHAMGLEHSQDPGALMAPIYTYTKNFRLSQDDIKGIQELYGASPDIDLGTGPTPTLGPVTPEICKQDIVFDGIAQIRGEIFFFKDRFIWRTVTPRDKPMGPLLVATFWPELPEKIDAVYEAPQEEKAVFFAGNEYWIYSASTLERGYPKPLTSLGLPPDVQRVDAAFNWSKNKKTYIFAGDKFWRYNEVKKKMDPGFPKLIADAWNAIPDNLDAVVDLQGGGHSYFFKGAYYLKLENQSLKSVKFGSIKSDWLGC

Stromelysin-1 [24] = biological target: T9, Stromelysin-1; experiment: Inhibition of MMP3 up to 100 uM
[25] = biological target: T11, Matrilysin (Homo sapiens) (UniProt P09237); experiment: Inhibition of MMP7 up to 100 uM
T11 sequence (whole entry): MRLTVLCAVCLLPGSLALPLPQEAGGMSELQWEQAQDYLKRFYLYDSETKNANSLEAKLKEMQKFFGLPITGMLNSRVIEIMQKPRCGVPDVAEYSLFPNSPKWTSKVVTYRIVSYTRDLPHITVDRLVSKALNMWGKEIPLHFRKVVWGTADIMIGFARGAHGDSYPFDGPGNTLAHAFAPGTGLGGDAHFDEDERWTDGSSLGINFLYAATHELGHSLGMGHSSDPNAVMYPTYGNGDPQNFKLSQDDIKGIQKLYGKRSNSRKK

Neutrophil collagenase [26] = biological target: T1, Neutrophil collagenase; experiment: Inhibition of MMP8 up to 100 uM
Target sequence in this assay (P22894 101-467 limits assumed): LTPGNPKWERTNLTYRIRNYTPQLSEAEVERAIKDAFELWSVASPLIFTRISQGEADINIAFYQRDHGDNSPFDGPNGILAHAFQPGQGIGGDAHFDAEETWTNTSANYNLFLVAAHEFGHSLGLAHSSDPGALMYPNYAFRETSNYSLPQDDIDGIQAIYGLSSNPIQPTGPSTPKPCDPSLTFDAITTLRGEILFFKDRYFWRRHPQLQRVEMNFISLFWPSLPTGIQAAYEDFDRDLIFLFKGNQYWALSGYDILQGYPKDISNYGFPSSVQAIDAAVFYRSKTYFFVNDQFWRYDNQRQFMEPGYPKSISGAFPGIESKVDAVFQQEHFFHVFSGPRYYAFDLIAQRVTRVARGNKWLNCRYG

[27] = biological target: T3, Matrix metalloproteinase-9; experiment: Inhibition of MMP9 up to 100 uM
[28] = biological target: T12, Macrophage metalloelastase (Homo sapiens, UniProt P39900); experiment: Inhibition of MMP12 up to 100 uM
Target sequence in this assay (P39900 106-470 limits assumed): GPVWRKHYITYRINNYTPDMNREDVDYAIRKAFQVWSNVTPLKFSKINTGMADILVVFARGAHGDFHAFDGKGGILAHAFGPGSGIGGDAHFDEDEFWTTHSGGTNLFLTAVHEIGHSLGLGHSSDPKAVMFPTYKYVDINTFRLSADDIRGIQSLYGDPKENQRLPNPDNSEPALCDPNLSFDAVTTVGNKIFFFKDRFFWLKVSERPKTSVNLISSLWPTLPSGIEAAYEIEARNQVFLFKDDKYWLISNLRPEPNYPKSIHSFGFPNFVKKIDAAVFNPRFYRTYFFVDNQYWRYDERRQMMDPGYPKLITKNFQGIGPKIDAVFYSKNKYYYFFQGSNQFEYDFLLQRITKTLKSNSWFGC

[29] = biological target: T4, Matrix metalloproteinase-14; experiment: Inhibition of MMP14 up to 100 uM
[30] = biological target: T13, Matrix metalloproteinase-16 (Homo sapiens, UniProt P51512); experiment: Inhibition of MMP16 up to 100 uM
[31] = biological target: T14, Matrix metalloproteinase-17 (Homo sapiens) (UniProt Q9ULZ9); experiment: Inhibition of MMP17
T14 sequence (whole entry): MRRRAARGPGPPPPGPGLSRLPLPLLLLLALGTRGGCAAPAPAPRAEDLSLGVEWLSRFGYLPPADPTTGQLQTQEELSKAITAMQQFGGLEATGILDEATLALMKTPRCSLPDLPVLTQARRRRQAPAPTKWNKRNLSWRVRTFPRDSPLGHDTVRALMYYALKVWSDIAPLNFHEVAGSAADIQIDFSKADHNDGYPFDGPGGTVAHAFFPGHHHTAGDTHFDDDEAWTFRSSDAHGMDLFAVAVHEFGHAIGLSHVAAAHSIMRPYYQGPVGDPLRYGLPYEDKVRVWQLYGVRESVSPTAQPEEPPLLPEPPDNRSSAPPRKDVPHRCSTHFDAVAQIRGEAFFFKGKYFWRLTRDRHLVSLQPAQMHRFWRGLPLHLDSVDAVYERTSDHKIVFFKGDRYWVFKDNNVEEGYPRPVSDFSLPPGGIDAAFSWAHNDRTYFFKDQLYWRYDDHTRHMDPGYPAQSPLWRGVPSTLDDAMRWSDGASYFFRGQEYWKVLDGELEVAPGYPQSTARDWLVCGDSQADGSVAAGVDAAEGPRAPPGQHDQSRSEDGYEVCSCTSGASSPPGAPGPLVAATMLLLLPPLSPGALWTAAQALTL

[32] = biological target: T12, Macrophage metalloelastase; experiment: Inhibition of MMP12
[33] = biological target: T10, Interstitial collagenase (Homo sapiens); experiment: Inhibition of MMP1
[34] = biological target: T11, Matrilysin (Homo sapiens); experiment: Inhibition of MMP7
[35] = biological target: T10, Interstitial collagenase (Homo sapiens); experiment: Inhibition of MMP1 up to 60 uM
[36] = biological target: T11, Matrilysin (Homo sapiens); experiment: Inhibition of MMP7 up to 60 uM
[37] = Inhibition of bovine aggrecanase; parameters: species or system Bos taurus
[38] = Selectivity for bovine aggrecanase over MMP1
[39] = Selectivity for bovine aggrecanase over MMP2
[40] = biological target: T10, Interstitial collagenase (Homo sapiens); experiment: Inhibition of MMP1 at 10 uM
[41] = biological target: T3, Matrix metalloproteinase-9; experiment: Inhibition of MMP9 at 10 uM
Collagenase 3 [42] = biological target: T2, Collagenase 3; experiment: Inhibition of MMP13 at 10 uM
[43] = biological target: T14, Matrix metalloproteinase-17 (Homo sapiens); experiment: Inhibition of MMP17 up to 100 uM
[44] = Selectivity for pig TACE over MMP1
[45] = Selectivity for pig TACE over MMP2
[46] = Selectivity for pig TACE over MMP3
[47] = Selectivity for pig TACE over MMP7
[48] = Selectivity for pig TACE over MMP8
[49] = Selectivity for pig TACE over MMP9
[50] = biological target: T13, Matrix metalloproteinase-16; experiment: Inhibition of MMP16
Collagenase 3 [51] = biological target: T2, Collagenase 3; experiment: Inhibition of MMP13 at 10 ug/mL

Cc1cc(COc2ccc(C(=O)NCC3(N4CCN(S(C)(=O)=O)CC4)C(=O)NC(=O)NC3=O)cc2)c2ccccc2n1
inhibition [1]: 11%

COc1ccccc1SC[C@H](CP(=O)(O)[C@H](Cc1ccccc1)NC(=O)OCc1ccccc1)C(=O)N[C@@H](Cc1c[nH]c2ccccc12)C(N)=O
pKi (Neutrophil collagenase [2]): 7.41
pKi (Collagenase 3 [3]): 7.80
pKi [4]: 7.45
pKi [5]: 6.80
pKi (Stromelysin-3): 9.64
pKi [6]: 7.52

Cc1cc(COc2ccc(C(=O)N[C@@]3(CC(=O)NO)C[C@@H](C)N[C@@H](C)C3)cc2)c2ccccc2n1
pKi [7]: 5.11
pKi [8]: 5.72
pKi [9]: < 5.52
pKi [10]: 8.55
pKi (Neutrophil collagenase [2]): 5.69
pKi (Collagenase 3 [3]): < 5.30
pKi [4]: < 5.52
pKi [5]: 6.79
pKi (Stromelysin-2 [11]): 5.78
pKi (Interstitial collagenase): < 5.30
pKi [6]: < 5.52
pKi (Stromelysin-1 [12]): 6.12
pKi [13]: 5.77

O=C(N[C@@H]1CCOC[C@@H]1C(=O)NO)c1ccc(Cn2c(C(F)(F)F)nc3ccccc32)cc1
pKi [8]: 5.72

COCCC1(Oc2ccc(Oc3ccc(-c4nc(-c5ccc(C#N)cc5)co4)cc3)cc2)C(=O)NC(=O)NC1=O
fold change (FC) [14]: 540
pIC50 (Collagenase 3 [3]): 9.44
fold change (FC) [15]: 2400
fold change (FC) [16]: 397
fold change (FC) [17]: 17000
fold change (FC) [18]: 394
fold change (FC) [19]: 540
fold change (FC) [20]: 619

O=C(NCc1cccnc1)c1cc(C(=O)NCc2cccnc2)ncn1
Activity (Stromelysin-2 [21]): inactive
Activity [22]: inactive
Activity [23]: inactive
Activity (Stromelysin-1 [24]): inactive
Activity [25]: inactive
Activity (Neutrophil collagenase [26]): inactive
Activity [27]: inactive
Activity [28]: inactive
Activity [29]: inactive
Activity [30]: inactive

COc1ccc(CNC(=O)c2cc3c(=O)n(Cc4ccc(C(=O)O)cc4)cnc3cn2)cc1
Activity [31]: inactive
Activity (Neutrophil collagenase [2]): inactive
Activity [4]: inactive
Activity [5]: inactive
Activity [32]: inactive
Activity [33]: inactive
Activity [34]: inactive

O=S(=O)(CCC(S)CS)c1ccc(Oc2ccccc2)cc1 (centres undefined)
pKi [4]: 7.00
pKi [5]: 6.68
Activity [35]: inactive
Activity [36]: inactive
pKi [6]: 7.34
pKi (Stromelysin-1 [12]): 5.00

CS(=O)(=O)N1CCC([C@H](C(=O)NO)[C@@H](Cc2cccc(O)c2)C(=O)N[C@H]2c3ccccc3C[C@H]2O)CC1
pIC50 [37]: 8.52
fold change (FC) [38]: > 100
fold change (FC) [39]: > 100

CC#CCOc1ccc(S(=O)(=O)C2(C(=O)NO)CCN(c3ccc(Cl)cc3)CC2)cc1
inhibition [40]: 52%
inhibition [41]: 52%
inhibition (Collagenase 3 [42]): 56%

O=C(OCc1ccccc1)c1cn2c(=O)n(Cc3ccccc3)c(=O)cc2s1
Activity [22]: inactive
Activity [23]: inactive
Activity (Stromelysin-1 [24]): inactive
Activity [25]: inactive
Activity (Neutrophil collagenase [26]): inactive
Activity [27]: inactive
Activity [28]: inactive
Activity [29]: inactive
Activity [43]: inactive

O=C1NCCCC[C@@H](C(=O)NCC(=O)N2CCOCC2)NC(=O)[C@H](Cc2ccc(-c3ccccc3C(F)(F)F)cc2)[C@@H](C(=O)NO)CCCO1
pKi (Neutrophil collagenase [2]): 6.70
pKi [4]: < 5.70
pKi [5]: < 5.70
pKi [32]: < 5.70
fold change (FC) [44]: > 100
fold change (FC) [45]: > 100
fold change (FC) [46]: > 100
fold change (FC) [47]: > 100
fold change (FC) [48]: 45
fold change (FC) [49]: > 100
pKi [50]: < 5.70
pKi (Stromelysin-2 [11]): < 5.70
pKi (Interstitial collagenase): < 5.70
pKi [6]: < 5.70
pKi (Stromelysin-1 [12]): < 5.70
pKi [13]: < 5.70

O=C(NCCCCN1CCOCC1)c1cc2ccccc2o1
Activity (Collagenase 3 [51]): inactive
